These results are taken from US20250268877A1 (BIOGEN MA INC., priority 2020, published 2025).

The target of one series is IRAK4 (Homo sapiens (Human), UniProt Q9NWZ3). The series can be described thus: IRAK4 2-hour 1 mM ATP Biochemical Assay (MesoScale Detection format).
The target of the next series is MDR1 (Homo sapiens (Human), UniProt P08183). The series can be described thus: MDR1-MDCK assay (apparent permeability, efflux ratio). The class given is in vitro ADME. Conditions: human, MDCK-MDR1, 1 μM.
Chain of MDR1 (P08183 whole entry): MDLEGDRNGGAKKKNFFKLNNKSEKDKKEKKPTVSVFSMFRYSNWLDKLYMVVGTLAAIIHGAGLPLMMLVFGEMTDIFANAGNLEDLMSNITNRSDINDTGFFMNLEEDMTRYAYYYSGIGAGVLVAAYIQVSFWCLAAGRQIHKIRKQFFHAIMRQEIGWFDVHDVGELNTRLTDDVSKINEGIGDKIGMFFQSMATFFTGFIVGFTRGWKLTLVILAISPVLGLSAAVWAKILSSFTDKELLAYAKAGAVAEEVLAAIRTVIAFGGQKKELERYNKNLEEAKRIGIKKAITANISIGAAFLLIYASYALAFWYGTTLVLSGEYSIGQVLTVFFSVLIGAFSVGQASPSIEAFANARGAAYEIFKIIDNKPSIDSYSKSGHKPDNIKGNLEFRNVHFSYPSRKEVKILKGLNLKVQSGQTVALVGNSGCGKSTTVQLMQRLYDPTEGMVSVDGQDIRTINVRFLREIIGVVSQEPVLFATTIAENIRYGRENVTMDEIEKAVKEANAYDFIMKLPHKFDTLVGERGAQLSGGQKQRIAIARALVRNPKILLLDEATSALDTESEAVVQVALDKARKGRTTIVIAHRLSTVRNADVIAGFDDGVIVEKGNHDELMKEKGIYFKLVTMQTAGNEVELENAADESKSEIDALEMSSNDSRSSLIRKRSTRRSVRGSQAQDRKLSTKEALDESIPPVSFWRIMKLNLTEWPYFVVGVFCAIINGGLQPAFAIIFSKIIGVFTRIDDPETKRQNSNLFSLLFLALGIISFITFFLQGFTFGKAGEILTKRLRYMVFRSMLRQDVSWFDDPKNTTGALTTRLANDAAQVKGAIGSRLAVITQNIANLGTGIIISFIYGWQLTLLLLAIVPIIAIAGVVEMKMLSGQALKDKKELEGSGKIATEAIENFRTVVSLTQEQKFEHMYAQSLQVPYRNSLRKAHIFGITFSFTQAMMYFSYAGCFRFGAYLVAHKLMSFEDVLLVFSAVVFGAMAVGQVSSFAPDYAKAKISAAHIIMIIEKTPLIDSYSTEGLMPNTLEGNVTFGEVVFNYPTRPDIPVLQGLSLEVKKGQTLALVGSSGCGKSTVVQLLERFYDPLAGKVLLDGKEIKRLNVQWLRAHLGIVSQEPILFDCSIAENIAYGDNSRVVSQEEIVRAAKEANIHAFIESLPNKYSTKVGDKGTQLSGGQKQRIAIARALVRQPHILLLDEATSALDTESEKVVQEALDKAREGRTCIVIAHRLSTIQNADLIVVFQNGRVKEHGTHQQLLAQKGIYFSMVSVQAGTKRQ
The nature of series [1]: Kinetic solubility assay (CLND), potassium phosphate buffer pH 6.8. The class given is physicochemical. Conditions: potassium phosphate buffer, kinetic from dmso stock, pH 6.8, 2% DMSO, 24 hours at ambient temperature; for solubility at 24 h: pH 6.8, aqueous buffer; for solubility kinetic at 24 h: aqueous buffer, comparator table.
Text: • Inject filtrates into the nitrogen detector for quantification on Analiza's Automated Discovery Workstation (ADW). • Solubility results generated in μg/mL
Series [2] deals with catalytical domain of human IRAK4 (a.a. 163-460) (Homo sapiens (Human), UniProt Q9NWZ3). The series can be described thus: IRAK4 SPR binding assay. The following applies: single-cycle, 1:1 interaction model. In general terms: Surface plasmon resonance follows binding to a sensor surface in real time, without labels.
Chain of catalytical domain of human IRAK4 (a.a. 163-460) (Q9NWZ3 163-460): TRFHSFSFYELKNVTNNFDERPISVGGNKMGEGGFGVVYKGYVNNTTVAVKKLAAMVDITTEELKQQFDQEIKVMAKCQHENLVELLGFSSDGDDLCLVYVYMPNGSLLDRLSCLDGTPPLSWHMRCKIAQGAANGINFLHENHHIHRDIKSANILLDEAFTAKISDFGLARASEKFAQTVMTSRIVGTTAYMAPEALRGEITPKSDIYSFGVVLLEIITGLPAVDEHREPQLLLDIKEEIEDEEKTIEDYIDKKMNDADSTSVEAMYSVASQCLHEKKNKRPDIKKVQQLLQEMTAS
Experimental: IRAK4 SPR. IRAK4 SPR was set up on Biacore T200 or S200 by using Biotin CAPture kit (Cytiva). In brief, purified IRAK4 in capture buffer (25 mM Hepes, 150 mM NaCl, 1 mM TCEP, pH7.4) was captured onto a CAP sensor surface via the interaction of biotin to streptavidin Typical capture level is between 1,000 RU to 2,000 RU, Compound binding kinetics to IRAK4 was examined with running buffer (25 mM Hepes, 150 mM NaCl, 1 mM TCEP, 2% DMSO, pH7.4). Serially diluted compounds were injected at 50 μl/min in single-cycle for 60-s association of each injection followed by 360-s dissociation at the end. The data was fitted to global 1:1 interaction model.
Series [3] in a line: Kpuu assay (in vivo brain-to-plasma partition, unbound). Conditions: brain (unbound) versus plasma (unbound), intravenous infusion 4 to 24 h, unbound drug partition coefficient, read-out: Brain Kpu,u.
Experimental: For the brain-to-plasma partition coefficient (Kp) evaluation, a dosing solution was intravenously infused into animals at a constant flow rate for 4 to 24 h. Blood samples were serially collected during infusion, and CSF and brain samples were harvested at the end of infusion.
Tissue samples were typically homogenized in phosphate buffer saline (PBS) using a bead ruptor.
CSF samples were typically diluted with 8% BSA in PBS to prevent from non-specific binding. Artificial CSF (aCSF) is used as the surrogate matrix.
Calibration curves were prepared by spiking the analyte(s) into blank matrices, which were processed together with plasma, tissue homogenate and/or CSF samples by protein precipitation using a proper organic solvent (e.g. acetonitrile and methanol) containing generic analogue internal standards (e.g. verapamil, chrysin and glyburide). Matrix matching was used when analyzing multiple matrices in the same run. Samples above the upper limit of quantitation (ULOQ) needed to be diluted into the calibration range using either a pre-extraction or post-extraction dilution approach.
Processed samples were analyzed by LC-MS/MS using a proper method performing within the acceptable sensitivity, selectivity, precision and accuracy. For an analytical run to be accepted, over 75% of the calibration standards in the dual calibration curves needed to be within 20% of the nominal concentrations.
Brain concentrations were compared against plasma concentrations at the corresponding timepoint for the calculation of partition coefficient (Kp).
Unbound drug partition coefficient (Kpuu), defined as the ratio of unbound drug partition across the blood-brain barrier, was calculated using the equation below:
[formula] • Cb: measured total drug concentration in brain • Fub: unbound drug fraction in brain • Cp: measured total drug concentration in plasma • Fup: unbound drug fraction in plasma Compound- or study-specific PK analysis that deviates from the typical procedure might be used when necessary, which will be documented in a study specific protocol included in the data upload.
Mix thoroughly. • This spiked plasma solution is shown in FIG. 1. • 3) Prepare a chilled ‘crash’ solution of internal standard in a solvent solution. • Pipette 200 μL of 25 ng/mL solution of internal standard, CPDPX (8-Cyclopentyl-1,3-dipropylxanthine, Sigma-Aldrich, C101) in 1:1 acetonitrile/methanol solvent solution into a 1 mL 96-well plate. • Chill on ice or refrigerate at 4° C. • This solution becomes the ‘Crash’ plate in FIG. 1. • 4) From remaining spiked plasma, remove 50 μL (T=0 h) of each plasma sample and place into a crash plate which contains 200 μL. To matrix match, add 50 μL of blank buffer to the crashed sample (similar to PPB samples). […] Mix crash plate thoroughly. • From remaining spiked plasma, remove 50 μL (T=4 h) of each plasma sample and place into a crash plate. To matrix match, add 50 μL of blank buffer to the crashed sample (similar to the protein binding samples). • Centrifuge crash plate at 3900 rpm for 10 minutes at 4° C.
% Free=(PAR of buffer side/PAR of plasma side)*100 • PAR—Peak area ratio (PAR)
Fu=% Free/100 • Fu=fraction unbound
Where [4] appears, read: 100 pM IRAK4, read-out: IRAK4 IC50.
Setting [5] is: read-out: MDR1-MDCK_Efflux Ratio.
Setting [6] is: comparator table, read-out: MDR1-MDCK Efflux Ratio.

pIC50: −log10 of the molar value. Converted amounts (≈) assume the structure as drawn. Where two headings read alike, the source gives them in different places.

Chain of IRAK4 (Q9NWZ3 whole entry): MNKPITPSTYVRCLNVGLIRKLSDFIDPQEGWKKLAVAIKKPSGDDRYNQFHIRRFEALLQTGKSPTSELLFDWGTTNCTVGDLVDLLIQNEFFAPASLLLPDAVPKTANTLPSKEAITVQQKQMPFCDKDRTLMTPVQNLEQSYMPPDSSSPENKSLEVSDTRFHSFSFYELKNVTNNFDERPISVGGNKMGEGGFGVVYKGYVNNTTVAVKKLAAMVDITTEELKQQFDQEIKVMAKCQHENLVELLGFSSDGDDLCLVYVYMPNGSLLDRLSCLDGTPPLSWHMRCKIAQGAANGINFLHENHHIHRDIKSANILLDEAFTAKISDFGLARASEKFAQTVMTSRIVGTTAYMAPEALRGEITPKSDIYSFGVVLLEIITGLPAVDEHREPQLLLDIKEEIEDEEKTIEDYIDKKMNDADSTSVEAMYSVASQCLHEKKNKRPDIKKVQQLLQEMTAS

Take `COCC12CC(n3cc4cc(C(=O)Nc5cccn([C@H]6C[C@H]6F)c5=O)c(OC5CC5)nc4n3)(CO1)C2` (single isomer, unassigned) [Example 86]: at IRAK4 (setting [4]), the pIC50 was 9.70. The efflux ratio at 120 min, 1 μM on MDR1 (setting [5]) was determined as 18.7. In series [1], the solubility at 24 h was found to be 0.0139 mg/mL (≈ 28.1 µM). The “IRAK4 SPR binding Half Life” value in series [2] is given as 74 min.

With `CC(C)Oc1cc2nn(C34COC(CF)(C3)C4)cc2cc1C(=O)Nc1cccn([C@H]2C[C@H]2F)c1=O` [Example 52, N-(1-((1S,2R)-2-fluorocyclopropyl)-2-oxo-1,2-dihydropyridin-3-yl)-2-(1-(fluoromethyl)-2-oxabicyclo[2.1.1]hexan-4-yl)-6-isopropoxy-2H-indazole-5-carboxamide], the pIC50 on IRAK4 (setting [4]) is 9.70. For the same compound, the efflux ratio at 120 min, 1 μM on MDR1 (setting [5]) is 5.16. The solubility at 24 h in series [1] came out at 0.0384 mg/mL (≈ 79.3 µM). Also, in series [3], the Kp was 0.3. The “IRAK4 SPR binding Half Life” value in series [2] came out at 70.7 min.

Consider `CC(C)Oc1nc2nn(C34COC(C)(C3)C4)cc2cc1C(=O)Nc1cccn(C2CC2)c1=O` [Example 9, N-(1-cyclopropyl-2-oxo-1,2-dihydropyridin-3-yl)-6-isopropoxy-2-(1-methyl-2-oxabicyclo[2.1.1]hexan-4-yl)-2H-pyrazolo[3,4-b]pyridine-5-carboxamide], for which, at IRAK4 (setting [4]), the pIC50 is 9.52. Further, the efflux ratio at 120 min, 1 μM at MDR1 (setting [5]) was found to be 3.26. Besides, in series [1], the solubility at 24 h came out at 0.0187 mg/mL (≈ 41.6 µM). In addition, the Kp in series [3] was 0.8. Moreover, the “IRAK4 SPR binding Half Life” value in series [2] is given as 80.4 min.

In the case of `CC(C)Oc1nc2nn([C@]34CC[C@](C)(C3)OC4)cc2cc1C(=O)Nc1cccn(C)c1=O` (single isomer, unassigned) [Comparator 1C, reference compound], on IRAK4 (100 pM IRAK4, comparator table, read-out: IRAK4 Biochemical IC50), the pIC50 was 9.40. At MDR1 (setting [6]), the efflux ratio at 120 min, 1 μM was 1.2. The same compound registered a kinetic solubility at 24 h in series [1] of 0.0443 mg/mL (≈ 101 µM). Further, in series [3] (comparator table), the Kp is 1.3. Besides, in series [2] (comparator table), the “IRAK4 SPR binding Half Life” value amounted to 27.1 min.

For `COCC12CC(n3cc4cc(C(=O)Nc5cccn([C@H]6C[C@@H]6F)c5=O)c(OC(C)C)nc4n3)(CO1)C2` (single isomer, unassigned) [Example 64], the negative logarithm of the IC50 (pIC50) at IRAK4 (setting [4]) is 9.40. In addition, the efflux ratio at 120 min, 1 μM at MDR1 (setting [5]) came out at 4.35. Besides, in series [1], the solubility at 24 h is 0.0589 mg/mL (≈ 118 µM). The “IRAK4 SPR binding Half Life” value in series [2] is on record as 47.2 min.

For `CC(C)Oc1cc2nn(C34COC(C)(C3)C4)cc2cc1C(=O)Nc1cccn(C)c1=O` [Comparator 1A, 6-isopropoxy-N-(1-methyl-2-oxo-1,2-dihydropyridin-3-yl)-2-(1-methyl-2-oxabicyclo[2.1.1]hexan-4-yl)-2H-indazole-5-carboxamide, reference compound], the efflux ratio at 120 min, 1 μM on MDR1 (setting [6]) turned out to be 1.2. This compound came in with a solubility (kinetic) at 24 h in series [1] of 0.06 mg/mL (≈ 142 µM). Also, the Kp in series [3] (comparator table) was determined as 1. Besides, the “IRAK4 SPR binding Half Life” value in series [2] (comparator table) was 9.0 min.

For the compound `CC(C)Oc1cc2nn([C@@]34CC[C@@](C)(C3)OC4)cc2cc1C(=O)Nc1cccn([C@H]2C[C@H]2F)c1=O` [Example 50, N-(1-((1S,2R)-2-fluorocyclopropyl)-2-oxo-1,2-dihydropyridin-3-yl)-6-isopropoxy-2-((1S,4S)-1-methyl-2-oxabicyclo[2.2.1]heptan-4-yl)-2H-indazole-5-carboxamide], at IRAK4 (setting [4]), the pIC50 is 10.00. The efflux ratio at 120 min, 1 μM on MDR1 (setting [5]) stood at 2.75. Also, the solubility at 24 h in series [1] worked out at 0.0405 mg/mL (≈ 84.3 µM). The Kp in series [3] stood at 0.4. Also, the “IRAK4 SPR binding Half Life” value in series [2] amounted to 138 min.

Take `CC(C)Oc1nc2nn([C@@]34CC[C@@](C)(C3)OC4)cc2cc1C(=O)Nc1cccn(C2CC2)c1=O` (single isomer, unassigned) [Example 47]: the pIC50 on IRAK4 (setting [4]) is 9.70. Besides, the efflux ratio at 120 min, 1 μM at MDR1 (setting [5]) is 2.04. In addition, the solubility at 24 h in series [1] amounted to 0.00109 mg/mL (≈ 2.35 µM). Also, the Kp in series [3] came out at 1.6. In addition, in series [2], the “IRAK4 SPR binding Half Life” value is 54 min.

Consider `COCC12CC(n3cc4cc(C(=O)Nc5cccn([C@H]6C[C@H]6F)c5=O)c(OC(C)C)nc4n3)(CO1)C2` [Example 49, N-(1-((1S,2R)-2-fluorocyclopropyl)-2-oxo-1,2-dihydropyridin-3-yl)-6-isopropoxy-2-(1-(methoxymethyl)-2-oxabicyclo[2.1.1]hexan-4-yl)-2H-pyrazolo[3,4-b]pyridine-5-carboxamide], for which the pIC50 at IRAK4 (setting [4]) is 10.00. On MDR1 (setting [5]), the efflux ratio at 120 min, 1 μM stood at 9.67. In series [1], this compound returned a solubility at 24 h of 0.0623 mg/mL (≈ 125 µM). For the same compound, the Kp in series [3] was determined as 0.4.

Take `O=C(Nc1cccn([C@H]2C[C@H]2F)c1=O)c1cc2cn([C@]34CC[C@H](C3)OC4)nc2nc1OC1CC1` (single isomer, unassigned) [Example 88]: the pIC50 on IRAK4 (setting [4]) was 9.70. The efflux ratio at 120 min, 1 μM at MDR1 (setting [5]) was 9.11. Further, in series [1], the solubility at 24 h turned out to be 0.0593 mg/mL (≈ 127 µM). Moreover, the Kp in series [3] was 0.2.

As for `CC(C)Oc1cc2nn(C34COC(C3)C4)cc2cc1C(=O)Nc1cccn([C@H]2C[C@H]2F)c1=O` [Example 68, 2-(2-oxabicyclo[2.1.1]hexan-4-yl)-N-(1-((1S,2R)-2-fluorocyclopropyl)-2-oxo-1,2-dihydropyridin-3-yl)-6-isopropoxy-2H-indazole-5-carboxamide], the pIC50 at IRAK4 (setting [4]) is 9.70. Besides, the efflux ratio at 120 min, 1 μM on MDR1 (setting [5]) stood at 8.61. Further, in series [1], the solubility at 24 h was 0.0453 mg/mL (≈ 100 µM). Moreover, the Kp in series [3] was 0.4.

On to `CC(C)Oc1nc2nn([C@]34CC[C@](C)(C3)OC4)cc2cc1C(=O)Nc1cccn(C2CC2)c1=O` (single isomer, unassigned) [Example 48], for which the pIC50 on IRAK4 (setting [4]) was 9.70. For the same compound, the efflux ratio at 120 min, 1 μM on MDR1 (setting [5]) is 1.73. For the same compound, the solubility at 24 h in series [1] was 0.00148 mg/mL (≈ 3.19 µM). Moreover, the “IRAK4 SPR binding Half Life” value in series [2] is reported as 58 min.

Take `CC(C)Oc1nc2nn(C[C@H]3CCOC3)cc2cc1C(=O)Nc1cccn(C2CC2)c1=O` [Example 5, (R)—N-(1-cyclopropyl-2-oxo-1,2-dihydropyridin-3-yl)-6-isopropoxy-2-((tetrahydrofuran-3-yl)methyl)-2H-pyrazolo[3,4-b]pyridine-5-carboxamide]: the pIC50 on IRAK4 (setting [4]) is 9.70. Moreover, the efflux ratio at 120 min, 1 μM at MDR1 (setting [5]) stood at 4.88. The compound also displayed a solubility at 24 h in series [1] of 0.0456 mg/mL (≈ 104 µM). In series [3], the Kp was found to be 0.8.

Turning to `CC(C)Oc1nc2nn(C[C@@H]3CCOC3)cc2cc1C(=O)Nc1cccn(C2CC2)c1=O` [Example 4, (S)—N-(1-cyclopropyl-2-oxo-1,2-dihydropyridin-3-yl)-6-isopropoxy-2-((tetrahydrofuran-3-yl)methyl)-2H-pyrazolo[3,4-b]pyridine-5-carboxamide], on IRAK4 (setting [4]), the pIC50 was 9.40. In addition, the efflux ratio at 120 min, 1 μM at MDR1 (setting [5]) worked out at 6.36. For the same compound, in series [1], the solubility at 24 h came out at 0.043 mg/mL (≈ 98.2 µM). Moreover, the Kp in series [3] came to 0.4.

As for `CC(C)Oc1nc2nn(C34COC(C3)C4)cc2cc1C(=O)Nc1cccn([C@H]2C[C@H]2C)c1=O` [Example 80, 2-(2-oxabicyclo[2.1.1]hexan-4-yl)-6-isopropoxy-N-(1-((1S,2R)-2-methylcyclopropyl)-2-oxo-1,2-dihydropyridin-3-yl)-2H-pyrazolo[3,4-b]pyridine-5-carboxamide], at IRAK4 (setting [4]), the pIC50 is 9.30. For the same compound, the efflux ratio at 120 min, 1 μM on MDR1 (setting [5]) amounted to 4.42. Also, the solubility at 24 h in series [1] was 0.0324 mg/mL (≈ 72.1 µM). Moreover, the Kp in series [3] was 1.

A word on the pIC50: it is the IC50 on a negative log10 scale, so that one unit is a factor of ten. As a reminder, the solubility is the dissolved amount per volume that the medium holds. A higher solubility goes with much dissolved substance. For orientation: solubility (kinetic) means solubility judged after dilution from a stock solution rather than from solid.
